This is an account of results in paper PMC5800494 (ACS chemical biology, 2017).

As usually defined, the Kd is the constant that tells how readily two partners part at equilibrium. For orientation: IC50 means the concentration that inhibits the measured activity by half. For orientation: MIC means the lowest concentration that inhibits growth of the organism. Low values mean greater potency, high ones weaker potency.

In one assay the target is E. coli RNAP core enzyme (Escherichia coli, UniProt P0A800+P0A8T7+P0A8V2). Nature of the assay: AS-MS. The format is binding.
The target in the next assay is RNAP (Escherichia coli, UniProt P0A800+P0A8T7+P0A8V2). Nature of the assay: biochemical. Set-up: species or system E. coli.
In assay [1] the target is RNAP (wild-type, co-expressed) (Escherichia coli, UniProt P0A800+P0A8T7+P0A8V2). Nature of the assay: biochemical. Further details: species or system E. coli.
The target of the next assay is [D516V]β-RNAP (Escherichia coli, UniProt P0A800+P0A8T7+P0A8V2, D516V). Nature of the assay: biochemical. Set-up: species or system E. coli.
A further assay deals with [H526D]β-RNAP (Escherichia coli, UniProt P0A800+P0A8T7+P0A8V2, H526D). Nature of the assay: biochemical. Further details: species or system E. coli.
The target in a further assay is [S531L]β-RNAP (Escherichia coli, UniProt P0A800+P0A8T7+P0A8V2, S531L). Nature of the assay: biochemical. Further details: species or system E. coli.
In a further assay the test system is [D622G]β′-RNAP. Nature of the assay: Fluorescence-detected RNAP inhibition assay. Particulars: enzyme: [D622G]β′-RNAP vs RNAP (co-expressed). Format: biochemical, E. coli.
The next assay deals with RNAP (reconstituted) (Escherichia coli, UniProt P0A800+P0A8T7+P0A8V2). Nature of the assay: biochemical. The format is biochemical, E. coli.
The next assay has as its system Δω RNAP. Format: biochemical, E. coli. The settings on record: enzyme: Δω RNAP vs RNAP (reconstituted).
The test system of assay [2] is E. coli MB5746 (lpxC tolC). Nature of the assay: Broth microdilution MIC. Format: cell-based. Particulars: Escherichia coli. In general terms: Dilution methods test growth across graded concentrations, often in twofold steps.
Assay [3] relates to E. coli D21f2tolC (rfa tolC). Nature of the assay: Broth microdilution MIC. The format is cell-based. Particulars: Escherichia coli.
For assay [4], the system named is E. coli D21f2tolC Rif^R-D516V (rfa tolC rpoB-D516V). Nature of the assay: Broth microdilution MIC. The settings on record: Escherichia coli. The format is cell-based.
For assay [5], the system named is E. coli D21f2tolC Rif^R-H526D (rfa tolC rpoB-H526D). Nature of the assay: Broth microdilution MIC. The format is cell-based. The settings on record: Escherichia coli.
Assay [6] concerns E. coli D21f2tolC Rif^R-S531L (rfa tolC rpoB-S531L). Nature of the assay: Broth microdilution MIC. Format: cell-based. The settings on record: Escherichia coli.
In assay [7] the test system is E. coli MB5746 RpoC (RNAP β′ subunit) D622G mutant. Nature of the assay: Broth microdilution MIC on MRL-436-resistant mutant. Format: cell-based. Particulars: RpoC D622G mutant of MB5746.
In assay [8] the test system is E. coli MB5746 RpoZ (RNAP ω subunit) Δ13–91 (frameshift) mutant. Described as above. Format: cell-based. Particulars: RpoZ Δ13–91 (frameshift) mutant of MB5746.
Assay [9] relates to E. coli MB5746 RpoZ (RNAP ω subunit) Δ21–91 (frameshift) mutant. The description is as above. Format: cell-based. The settings on record: RpoZ Δ21–91 (frameshift) mutant of MB5746.
The subject of assay [10] is E. coli MB5746 RpoZ (RNAP ω subunit) Δ23–91 (frameshift) mutant. Described as above. The format is cell-based. Particulars: RpoZ Δ23–91 (frameshift) mutant of MB5746.
For assay [11], the system named is E. coli MB5746 RpoZ (RNAP ω subunit) Δ24–91 (frameshift) mutant. Described as above. Format: cell-based. The settings on record: RpoZ Δ24–91 (frameshift) mutant of MB5746.
Assay [12] concerns E. coli MB5746 RpoZ (RNAP ω subunit) Δ35–91 (frameshift) mutant. Described as above. The format is cell-based. The settings on record: RpoZ Δ35–91 (frameshift) mutant of MB5746.
Assay [13] relates to E. coli MB5746 RpoZ (RNAP ω subunit) Δ1–91 (deletion). Nature of the assay: Broth microdilution MIC on constructed ΔrpoZ strain. The format is cell-based. Particulars: RpoZ Δ1–91 (deletion) of MB5746.
In a further assay the target is yeast invertase (Saccharomyces cerevisiae, UniProt P00724). Particulars: compound at 10 μM against 5μM invertase.

Molecules are shown by their SMILES. Converted amounts (≈) assume the structure as drawn.

In the case of `CO[C@H]1/C=C/O[C@@]2(C)Oc3c(C)c(O)c4c(O)c(c(/C=N/N5CCN(C)CC5)c(O)c4c3C2=O)NC(=O)/C(C)=C\C=C\[C@H](C)[C@H](O)[C@@H](C)[C@@H](O)[C@@H](C)[C@H](OC(C)=O)[C@@H]1C` [Rif, rifampin], the Kd on E. coli RNAP core enzyme is under 2000 nM. Moreover, the IC50 against RNAP is 20 nM; in assay [1], 30 nM; in assay [D516V]β-RNAP, 70000 nM; in [H526D]β-RNAP it was over 100000 nM; in assay [S531L]β-RNAP, 80000 nM; at RNAP (reconstituted), 40 nM. Further, the “IC50 ratio (IC50/IC50wild-type)” value amounted to 1 in assay [1] (enzyme: RNAP (co-expressed)), 1 in assay [D622G]β′-RNAP, 1 at RNAP (reconstituted) (enzyme: RNAP (reconstituted)) and 0.5 with Δω RNAP. For the same compound, the MIC turned out to be 0.5 µg/mL (≈ 0.608 µM) in assay [2]; 0.5 µg/mL (≈ 0.608 µM) in assay [3]; 32 µg/mL (≈ 38.9 µM) in assay [4]; 128 µg/mL (≈ 156 µM) in assay [5]; 64 µg/mL (≈ 77.8 µM) in assay [6]. For the same compound, the “resistance level (MIC/MICwild-type)” value in assay [7], in assay [8], in [9], in [10], in assay [11] and in [12] was 1 each time. Besides, in assay [13], the “resistance level (MIC/MICwild-type)” value is reported as 1. The “AS-MS signal against invertase (selectivity counter-screen)” value at yeast invertase was “did not show an AS-MS signal”.
